{"source": "ChEMBL document CHEMBL1129473", "about": "“Slow-binding inhibition of gamma-aminobutyric acid aminotransferase by hydrazine analogues” (J Med Chem, 1996)", "key": {"[1]": {"target": "T1, 4-aminobutyrate aminotransferase, mitochondrial (Sus scrofa, UniProt P80147)", "T1 sequence (P80147 whole entry)": "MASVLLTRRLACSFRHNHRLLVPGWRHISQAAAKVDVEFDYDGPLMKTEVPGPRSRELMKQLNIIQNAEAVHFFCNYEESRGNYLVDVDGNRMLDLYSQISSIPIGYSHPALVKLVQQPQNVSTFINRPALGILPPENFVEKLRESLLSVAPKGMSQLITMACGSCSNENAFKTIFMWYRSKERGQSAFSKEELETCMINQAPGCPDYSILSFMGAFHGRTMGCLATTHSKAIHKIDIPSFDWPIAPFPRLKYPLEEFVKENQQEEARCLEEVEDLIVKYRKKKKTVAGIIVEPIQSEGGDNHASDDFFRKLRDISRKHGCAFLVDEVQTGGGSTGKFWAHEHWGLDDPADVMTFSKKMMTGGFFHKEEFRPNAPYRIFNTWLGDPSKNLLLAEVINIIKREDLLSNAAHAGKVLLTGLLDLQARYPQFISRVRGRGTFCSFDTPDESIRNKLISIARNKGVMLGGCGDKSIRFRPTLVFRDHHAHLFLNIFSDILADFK", "test": "The Dissociation Constant for Gamma-amino-N-butyrate transaminase"}, "[2]": {"target": "4-aminobutyrate aminotransferase, mitochondrial (Sus scrofa) (UniProt P80147)", "sequence (P80147 whole entry)": "as above", "test": "The Reactivation Kinetic Constant for Gamma-amino-N-butyrate transaminase"}, "[3]": {"target": "T1, 4-aminobutyrate aminotransferase, mitochondrial", "test": "Inhibitory activity against Gamma-amino-N-butyrate transaminase"}, "[4]": {"target": "4-aminobutyrate aminotransferase, mitochondrial (Sus scrofa) (UniProt P80147)", "test": "Dissociation constant of the Gamma-amino-N-butyrate transaminase"}, "[5]": {"target": "4-aminobutyrate aminotransferase, mitochondrial (Sus scrofa) (UniProt P80147)", "test": "Inhibitory rate constant against Gamma-amino-N-butyrate transaminase"}}, "note": "Counter-ions that a name gives are not always drawn.", "data": [{"smiles": "NNCCC(=O)O", "values": [{"measurement": "Kd", "setting": "[1]", "value": "< 20", "unit": "nM"}, {"measurement": "Kreact", "setting": "[2]", "value": 0.0069, "unit": "min⁻¹"}]}, {"smiles": "NNCc1cccc(O)c1", "note": "[3-HYDROXYBENZYLHYDRAZINE DIHYDROCHLORIDE]", "values": [{"measurement": "Kd", "setting": "[1]", "value": 460, "unit": "nM"}, {"measurement": "Kreact", "setting": "[2]", "value": 0.02, "unit": "min⁻¹"}, {"measurement": "Ki", "setting": "[3]", "value": 300, "unit": "nM"}, {"measurement": "K4", "setting": "[4]", "value": 0.005, "unit": "min⁻¹"}, {"measurement": "K3", "setting": "[5]", "value": 330, "unit": "M⁻¹ s⁻¹"}]}, {"smiles": "CNN", "note": "[METHYLHYDRAZINE]", "values": [{"measurement": "Kd", "setting": "[1]", "value": 2800, "unit": "nM"}, {"measurement": "Kreact", "setting": "[2]", "value": 4, "unit": "min⁻¹"}, {"measurement": "Ki", "setting": "[3]", "value": 2200, "unit": "nM"}, {"measurement": "K4", "setting": "[4]", "value": 0.0046, "unit": "min⁻¹"}, {"measurement": "K3", "setting": "[5]", "value": 34.7, "unit": "M⁻¹ s⁻¹"}]}]}
